Experimental data taken from patent US11654169B2, “Methods for protecting skin and/or promoting wound healing” (SINPHAR PHARMACEUTICAL CO., LTD., priority 2016, dated 2023).

What was measured:
Format in all cases: cell-based
[1] = system: normal primary human skin fibroblastic cells; test: Intracellular content of collagen in fibroblasts (Western blot and ELISA), relative to control; conditions: 48 hours; for relative intracellular content of collagen: control group = 100%
Experimental: (§1) The normal primary human skin fibroblastic cells (purchased from ATCC) were cultivated in a Fibroblast Growth Medium. The cells thus provided were used in the following experiments. […]
(§2) The normal primary human skin fibroblastic cells provided by [Preparation Example C] were divided into 37 groups and were respectively cultivated with the following medium for 48 hours: • 1. Group 1: a Fibroblast Growth Medium • 2. Group 2-1 to 2-3: Fibroblast Growth Media containing the pachymic acid (PA) provided by [Preparation Example B] at a concentration of 0.01, 0.1 and 1 μM, respectively; • 3. Group 3-1 to 3-3: Fibroblast Growth Media containing the dehydropachymic acid (DPA) provided by [Preparation Example B] at a concentration of 0.01, 0.1 and 1 μM, respectively; • 4. Group 4-1 to 4-3: Fibroblast Growth Media containing the tumulosic acid (TA) provided by [Preparation Example B] at a concentration of 0.01, 0.1 and 1 μM, respectively; • 5. Group 5-1 to 5-3: Fibroblast Growth Media containing the dehydrotumulosic acid (DTA) provided by [Preparation Example B] at a concentration of 0.01, 0.1 and 1 μM, respectively; • 6. Group 6-1 to 6-3: Fibroblast Growth Media containing the polyporenic acid C (PAC) provided by [Preparation Example B] at a concentration of 0.01, 0.1 and 1 μM, respectively; • 7. Group 7-1 to 7-3: Fibroblast Growth Media containing the 3-epi-dehydrotumulosic acid (EDTA) provided by [Preparation Example B] at a concentration of 0.01, 0.1 and 1 μM, respectively; • 8. Group 8-1 to 8-3: Fibroblast Growth Media containing the dehydrotrametenolic acid (DTTA) provided by [Preparation Example B] at a concentration of 0.01, 0.1 and 1 μM, respectively; • 9. Group 9-1 to 9-3: Fibroblast Growth Media containing the trametenolic acid (TTA) provided by [Preparation Example B] at a concentration of 0.01, 0.1 and 1 μM, respectively; • 10. Group 10-1 to 10-3: Fibroblast Growth Media containing the poricoic acid A (PAA) provided by [Preparation Example B] at a concentration of 0.01, 0.1 and 1 μM, respectively; • 11. Group 11-1 to 11-3: Fibroblast Growth Media containing the dehydroeburicoic acid (DEA) provided by [Preparation Example B] at a concentration of 0.01, 0.1 and 1 μM, respectively; • 12. Group 12-1 to 12-3: Fibroblast Growth Media containing the poricoic acid B (PAB) provided by [Preparation Example B] at a concentration of 0.01, 0.1 and 1 μM, respectively; • 13. Group 13-1 to 13-3: Fibroblast Growth Media containing the eburicoic acid (EA) provided by [Preparation Example B] at a concentration of 0.01, 0.1 and 1 μM, respectively.
Thereafter, the cell medium of each group was collected and concentrated. Then, the intracellular content of collagen was measured and analyzed by Western blot and enzyme-linked immunosorbent assay (ELISA).

[2] = system: normal primary human skin fibroblastic cells; test: Content of collagen in cell medium (extracellular collagen) of fibroblasts (Western blot and ELISA), relative to control; conditions: 48 hours; for relative content of collagen in the medium (extracellular content of collagen): control group = 100%; for extracellular contents of collagen (collagen in cell medium) as compared to the control group (in words): treated cells vs control group
Experimental: The normal primary human skin fibroblastic cells (purchased from ATCC) were cultivated in a Fibroblast Growth Medium. The cells thus provided were used in the following experiments.
The normal primary human skin fibroblastic cells provided by [Preparation Example C] were divided into 4 groups and were respectively cultivated with the following medium for 48 hours: • 1. Group I: a Fibroblast Growth Medium; • 2.
(§3) Thereafter, the cell medium of each group was collected and concentrated. Then, the intracellular content of collagen, the content of collagen in cell medium (i.e., extracellular content of collagen) and the content of hyaluronic acid in cell medium were measured and analyzed by Western blot and enzyme-linked immunosorbent assay (ELISA).
as §2
The content of collagen in the medium of each group (i.e., extracellular content of collagen) was provided.

[3] = system: normal primary human skin fibroblastic cells; test: Content of hyaluronic acid in cell medium of fibroblasts (Western blot and ELISA), relative to control; conditions: 48 hours; for relative content of hyaluronic acid in the medium (extracellular content of hyaluronic acid): control group = 100%
Experimental: as §1, §3, §2
The content of hyaluronic acid in the medium of each group (i.e., extracellular content of hyaluronic acid) was provided.

Row | Compound | relative intracellular content of collagen ([1]; 0.01 μM) [%] | relative intracellular content of collagen ([1]; 0.1 μM) [%] | relative intracellular content of collagen ([1]; 1 μM) [%] | intracellular contents of collagen as compared to the control group (in words) ([1]; treated cells vs control group) | relative content of collagen in the medium (extracellular content of collagen) ([2]; 0.01 μM) [%] | relative content of collagen in the medium (extracellular content of collagen) ([2]; 0.1 μM) [%] | relative content of collagen in the medium (extracellular content of collagen) ([2]; 1 μM) [%] | extracellular contents of collagen (collagen in cell medium) as compared to the control group (in words) [2] | relative content of hyaluronic acid in the medium (extracellular content of hyaluronic acid) ([3]; 0.01 μM) [%] | relative content of hyaluronic acid in the medium (extracellular content of hyaluronic acid) ([3]; 0.1 μM) [%] | relative content of hyaluronic acid in the medium (extracellular content of hyaluronic acid) ([3]; 1 μM) [%] | contents of hyaluronic acid as compared to the control group (in words) ([3]; treated cells vs control group) | contents of hyaluronic acid, ingredients singled out as stronger (in words) ([3]; treated cells vs control group, compared with the other active ingredients)
1 | C=C(CC[C@@H](C(=O)O)[C@H]1[C@H](O)C[C@@]2(C)C3=CC[C@H]4C(C)(C)[C@@H](O)CC[C@]4(C)C3=CC[C@]12C)C(C)C [Dehydrotumulosic acid (DTA), dehydrotumulosic acid] | 159 | 156 | 127 | significantly enhanced | 122 | 105 | 139 | significantly enhanced | 112 | 134 | 168 | significantly enhanced | enhanced more significantly
2 | C=C(CC[C@@H](C(=O)O)[C@H]1CC[C@@]2(C)C3=C(CC[C@]12C)[C@@]1(C)CC[C@H](O)C(C)(C)[C@@H]1CC3)C(C)C [Eburicoic acid (EA), eburicoic acid] | 102 | 97 | 95 |  | 108 | 106 | 88 | significantly enhanced | 94 | 107 | 120 | significantly enhanced | 
